Data taken from US20040236269A1, “Microsurgical tissue treatment system” (priority 2002, published 2004).

Assay: Delivery of a topical anesthetic through micro-ablated stratum corneum; sensation probed with 20 gauge needle or by pinching
Assay type: in vivo
Details: solution of 4% lidocaine applied for five minutes to approx. 1 cm^2 area ablated by piezoelectric actuator with 60 micron aluminum oxide particles, 10-15 pulses, 20 kHz; probed with 20 gauge needle or pinching
Description: A piezoelectric actuator was fitted with 60 micron aluminum oxide particles fixed to its surface so as to provide an approximate 1 cm^2 treatment area. Ten to fifteen pulses of less than one second duration were applied with force of less than 1 pound to the area and frequency of 20 kHz. […] A solution of 4% lidocaine was applied to the area and incubated for five minutes. The excess lidocaine was wiped off, and a series of probes was made in and around the area of treatment using a 20 gauge needle or by pinching.

CCN(CC)CC(=O)Nc1c(C)cccc1C [lidocaine]
anesthesia (lack of sensation within and in close proximity to the treatment site): significant anesthesia was obtained
